Measured values as given in ChEMBL document CHEMBL3621133, “Macrocyclic derivatives of 6-methyluracil as ligands of the peripheral anionic site of acetylcholinesterase” (Medchemcomm, 2014).

Columns and labels:
Acetylcholinesterase [1] = target: T1, Acetylcholinesterase (Homo sapiens, UniProt P22303); test: Inhibition of AChE from human erythrocytes
Cholinesterase = Cholinesterase (Homo sapiens, UniProt P06276); test: Inhibition of BChE from human plasma
Rattus norvegicus [2] = test: […] in muscle action potential decrement in rat experimental autoimmune model of myasthenia gravis at 0.004 mg/kg, ip (reference value: 67.3 +/- 2.7%); type: functional
Rattus norvegicus [3] = test: […] in muscle action potential decrement in rat experimental autoimmune model of myasthenia gravis at 0.008 mg/kg, ip (reference value: 67.3 +/- 2.7%); type: functional
[4] = Toxicity in ip dosed rat; type: organism-based; details: in vivo
Acetylcholinesterase [5] = target: T1, Acetylcholinesterase; test: Reversible inhibition of AChE from human erythrocytes by Lineweaver-Burk plot
Rattus norvegicus [6] = test: […] in muscle action potential decrement in rat experimental autoimmune model of myasthenia gravis at 0.1 mg/kg, ip (reference value: 67.3 +/- 2.7%); type: functional
Rattus norvegicus [7] = test: […] in muscle action potential decrement in rat experimental autoimmune model of myasthenia gravis at 0.3 mg/kg, ip (reference value: 67.3 +/- 2.7%); type: functional

T1 sequence (P22303 whole entry): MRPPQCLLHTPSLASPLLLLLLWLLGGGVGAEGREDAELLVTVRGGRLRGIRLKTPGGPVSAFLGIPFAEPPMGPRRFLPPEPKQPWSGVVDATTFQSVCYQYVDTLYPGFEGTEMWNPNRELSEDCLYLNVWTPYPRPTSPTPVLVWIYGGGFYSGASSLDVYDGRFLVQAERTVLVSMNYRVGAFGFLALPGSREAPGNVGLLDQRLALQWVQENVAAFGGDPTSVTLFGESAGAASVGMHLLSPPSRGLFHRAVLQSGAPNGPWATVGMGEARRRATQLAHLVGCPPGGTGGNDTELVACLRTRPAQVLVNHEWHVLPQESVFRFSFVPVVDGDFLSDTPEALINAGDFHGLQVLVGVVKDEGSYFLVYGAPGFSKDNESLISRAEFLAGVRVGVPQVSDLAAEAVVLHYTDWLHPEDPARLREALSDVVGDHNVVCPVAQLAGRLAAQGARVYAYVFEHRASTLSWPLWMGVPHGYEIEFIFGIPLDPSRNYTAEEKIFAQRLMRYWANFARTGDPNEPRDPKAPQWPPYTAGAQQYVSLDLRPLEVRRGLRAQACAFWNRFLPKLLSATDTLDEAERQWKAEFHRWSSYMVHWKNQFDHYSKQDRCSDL
Chain of Cholinesterase (P06276 whole entry): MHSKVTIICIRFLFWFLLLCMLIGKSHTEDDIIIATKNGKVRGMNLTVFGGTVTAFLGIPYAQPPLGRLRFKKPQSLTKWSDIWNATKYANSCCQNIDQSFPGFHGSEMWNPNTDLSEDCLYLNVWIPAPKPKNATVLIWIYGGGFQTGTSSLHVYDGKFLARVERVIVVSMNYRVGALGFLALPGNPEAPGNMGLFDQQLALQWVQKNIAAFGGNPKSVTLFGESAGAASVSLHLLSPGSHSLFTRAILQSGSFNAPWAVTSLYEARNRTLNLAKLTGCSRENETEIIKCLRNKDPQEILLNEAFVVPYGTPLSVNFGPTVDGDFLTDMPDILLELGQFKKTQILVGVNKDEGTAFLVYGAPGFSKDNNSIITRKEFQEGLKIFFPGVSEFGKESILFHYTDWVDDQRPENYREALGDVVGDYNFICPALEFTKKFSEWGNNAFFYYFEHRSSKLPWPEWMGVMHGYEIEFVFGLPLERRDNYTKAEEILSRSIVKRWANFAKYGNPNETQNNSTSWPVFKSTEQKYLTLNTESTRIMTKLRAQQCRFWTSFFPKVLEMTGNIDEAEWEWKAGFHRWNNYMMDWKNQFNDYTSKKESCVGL

Compound | IC50 (Acetylcholinesterase [1]) | IC50 (Cholinesterase) | Activity (Rattus norvegicus [2]) | Activity (Rattus norvegicus [3]) | LD50 [4] | Ki (Acetylcholinesterase [5]) | Activity (Rattus norvegicus [6]) | Activity (Rattus norvegicus [7])
CC[N+](CC)(CCCCCn1c(C)cc(=O)n(CCCCC[N+](CC)(CC)Cc2ccccc2[N+](=O)[O-])c1=O)Cc1ccccc1[N+](=O)[O-].[Br-].[Br-] | 0.14 nM | 10000 nM | 83.25% | 95.41% | 0.008 mg/kg | 0.08 nM | – | –
CN(C)C(=O)Oc1ccc[n+](C)c1.[Br-] [PYRIDOSTIGMINE BROMIDE] | – | – | – | – | 2.7 mg/kg | – | 91.3% | –
CC[N+]1(Cc2ccccc2[N+](=O)[O-])CCCCCn2c(C)cc(=O)n(c2=O)CCCCC[N+](CC)(Cc2ccccc2[N+](=O)[O-])Cc2ccc(cc2)C1.[Br-].[Br-] (stereo not given) | 7 nM | 1200 nM | – | – | 15.5 mg/kg | 50.1 nM | 75% | 95.4%
CC[N+]1(Cc2ccccc2[N+](=O)[O-])CCCCCC[N+](CC)(Cc2ccccc2[N+](=O)[O-])CCCCCn2c(=O)cc(C)n(c2=O)CCCCC1 (stereo not given) | 59 nM | 9200 nM | – | – | – | – | – | –
CC[N+]1(Cc2ccccc2[N+](=O)[O-])CCCCCn2c(C)cc(=O)n(c2=O)CCCCC[N+](CC)(Cc2ccccc2[N+](=O)[O-])CCCCCn2c(=O)cc(C)n(c2=O)CCCCC1 (stereo not given) | 130 nM | 10000 nM | – | – | – | – | – | –
CC[N+]1(Cc2ccccc2[N+](=O)[O-])CCCCCn2c(C)c3c(=O)n(c2=O)CCCCC[N+](CC)(Cc2ccccc2[N+](=O)[O-])CCCCCn2c(C)c(c(=O)n(c2=O)CCCCC1)C3 (stereo not given) | 4000 nM | 20000 nM | – | – | – | – | – | –
